Source: PubChem BioAssay (NCI)
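Grown in 96-well plates, cells were treated for 48 hours with each compound at five concentrations. Insufficient inhibition: endpoint recorded as highest concentration tested. GI50: concentration for 50% inhibition of growth. TGI denotes the concentration required for complete inhibition of growth.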

Experiments:
Experiment in all cases: growth of human tumour cells (NCI), 48 h
NCI-H460 lung = tested on: NCI-H460 lung
KM12 colon = tested on: KM12 colon
CCRF-CEM leukemia = tested on: CCRF-CEM leukemia
UO-31 renal = tested on: UO-31 renal
HOP-92 NSCLC = tested on: HOP-92 NSCLC
OVCAR-4 ovarian = tested on: OVCAR-4 ovarian
SK-MEL-5 melanoma = tested on: SK-MEL-5 melanoma
M14 melanoma = tested on: M14 melanoma
786-0 renal = tested on: 786-0 renal
TK-10 renal = tested on: TK-10 renal

| SMILES | TGI (NCI-H460 lung) | TGI (KM12 colon) | TGI (CCRF-CEM leukemia) | TGI (UO-31 renal) | TGI (HOP-92 NSCLC) | TGI (OVCAR-4 ovarian) | TGI (SK-MEL-5 melanoma) | TGI (M14 melanoma) | TGI (786-0 renal) | TGI (TK-10 renal) | GI50 (NCI-H460 lung) | GI50 (KM12 colon) | GI50 (CCRF-CEM leukemia) | GI50 (UO-31 renal) | GI50 (HOP-92 NSCLC) | GI50 (OVCAR-4 ovarian) | GI50 (SK-MEL-5 melanoma) | GI50 (M14 melanoma) | GI50 (786-0 renal) | GI50 (TK-10 renal) |
| --- | --- | --- | --- | --- | --- | --- | --- | --- | --- | --- | --- | --- | --- | --- | --- | --- | --- | --- | --- | --- |
| CCOC(=O)c1ccc(N[C@@H]2c3cc4c(cc3C(C3=CC(=O)C(=O)C(OC)=C3)[C@H]3C(=O)OCC32)OCO4)cc1 (stereo partly specified) | 5.84 µM | > 33.2 µM | > 28.1 µM | 9.43 µM | 25 µM | > 83 µM | 11.7 µM | 9.96 µM | 4.09 µM | 38.9 µM |  |  |  |  |  |  |  |  |  |  |
| COC(=O)/C(C#N)=C1\CCC(C(=O)OC)N1C (stereo unspecified) | > 100 µM | > 100 µM | > 100 µM | > 100 µM | > 100 µM | > 100 µM | > 100 µM | > 100 µM | > 100 µM | > 100 µM |  |  |  |  |  |  |  |  |  |  |
| CCC(=C(c1ccc(OCCCN(C)C)cc1)c1ccc(OCCCN(C)C)cc1)c1ccc(Cl)cc1 | 1.23 µM | 3.43 µM | 1.13 µM | 0.58 µM | 3.42 µM | 2.41 µM | 4.37 µM | 0.577 µM | 0.759 µM | 6.01 µM | 0.457 µM | 1.26 µM | 0.392 µM | 0.269 µM | 0.945 µM | 0.922 µM | 2.02 µM | 0.302 µM | 0.35 µM | 3.26 µM |
| NC(=O)c1cccc(Nc2nccc(Nc3cccc(F)c3)n2)c1 | > 25 µM | > 25 µM | > 25 µM | 22.3 µM | 18.1 µM | > 25 µM | > 16.3 µM | > 25 µM | > 25 µM | > 23.7 µM | 7 µM | 7.27 µM | 8.54 µM | 4.49 µM | 2.66 µM | 4.37 µM | 4.9 µM | 8.92 µM | 9.15 µM | 6.51 µM |
| C=C1CC2(OC1=O)C(=O)N(CCCN1C(=O)C3(CC(=C)C(=O)O3)c3ccccc31)c1ccccc12 (stereo unspecified) | 18.5 µM | 12 µM | 2.5 µM | 2.97 µM | 2.76 µM | 3.14 µM | 16.7 µM | 3.67 µM | 3.9 µM | 2.98 µM | 3.94 µM | 2.72 µM | 0.416 µM | 1.53 µM | 1.33 µM | 1.52 µM | 4.96 µM | 1.68 µM | 1.68 µM | 1.54 µM |
| OB1OCc2cc(/C=C/c3cccc(C(F)(F)F)c3)ccc21 | 22.8 µM | > 100 µM | 33.7 µM | 20.3 µM | 10.7 µM | 17.3 µM | 81.4 µM | 35.3 µM | 10.1 µM | 34.1 µM | 0.48 µM | 2.26 µM | 0.459 µM | 0.551 µM | 0.712 µM | 1.86 µM | 2.05 µM | 0.653 µM | 0.365 µM | 2.46 µM |
| Cc1ccc2nc3c(Cl)c(C)c(=O)cc-3sc2c1 | > 100 µM | > 100 µM | > 100 µM | > 100 µM | > 100 µM | > 100 µM | > 100 µM | > 100 µM | > 100 µM | > 100 µM | 50.3 µM | 78 µM | 30.5 µM |  |  | 61.7 µM |  | 37.7 µM | 96.3 µM | > 100 µM |
| Cc1cc(Nc2nc(SCc3ccc(C(=O)Nc4ccc(F)cc4N)cc3)nn3cccc23)n[nH]1 | > 100 µM | 10.3 µM | > 100 µM | 11 µM | 24.3 µM | 77.7 µM | 2.43 µM | 15.7 µM | 22 µM | 7.33 µM | 0.395 µM | 0.284 µM | 0.411 µM | 1.33 µM | 3.68 µM | 1.66 µM | 0.334 µM | 0.289 µM | 0.466 µM | 1.21 µM |
| CC1(C)OC2COC3(CNO)OC(C)(C)OC3C2O1 (stereo unspecified) | > 100 µM | > 100 µM | > 100 µM | > 100 µM | > 100 µM | > 100 µM | > 100 µM | > 100 µM | > 100 µM | > 100 µM |  |  |  |  |  |  |  |  |  |  |
| COc1ccc(Nc2nc3ccccc3nc2-c2cccs2)cc1 | > 100 µM | > 100 µM | > 100 µM | > 100 µM | > 100 µM | > 100 µM | > 100 µM | > 100 µM | > 100 µM | > 100 µM |  |  |  |  |  |  |  |  |  |  |
| COc1ccccc1/C=C/C(=O)/C=C/c1ccccc1O | 4.39 µM | 1.5 µM | 0.544 µM | 1.61 µM | 6.08 µM | 8.83 µM | 2.78 µM | 3.17 µM | 3.41 µM | 5.74 µM | 1.67 µM | 0.369 µM | 0.2 µM | 0.359 µM | 1.78 µM | 1.17 µM | 1.46 µM | 1.46 µM | 1.6 µM | 2.72 µM |
| CC1=C(C(=O)Nc2ccccc2C)C(/C=C/c2ccccc2)C(C(=O)Nc2ccccc2C)=C(C)N1 | > 100 µM | > 100 µM | > 100 µM | > 100 µM | > 100 µM | > 100 µM | > 100 µM | > 100 µM | > 100 µM | > 100 µM |  |  |  |  |  |  |  |  |  |  |
| CCCCCCCCCCCC[n+]1ccccc1 (tested in a mixture with another compound) | 3.9 µM | 1.59 µM | 4.53 µM | 14.8 µM | 2.43 µM | 12.4 µM | 1.36 µM |  | 5.92 µM | 1.86 µM | 1.33 µM | 0.38 µM | 0.724 µM | 2.24 µM | 0.29 µM | 0.683 µM | 0.342 µM | 1.1 µM | 1.95 µM | 0.427 µM |
| O=C(/C=C/c1ccccc1)CC(c1ccccc1)N1CCOCC1 (stereo unspecified) | 33.2 µM | 3.72 µM | 7.3 µM | 3.24 µM | 18.3 µM | 23.3 µM | 17.5 µM | 3.41 µM | 3.61 µM | 24.5 µM | 15.5 µM | 1.99 µM | 2.42 µM | 1.58 µM | 3.59 µM | 9.68 µM | 4.87 µM | 1.79 µM | 1.95 µM | 8.63 µM |
